In US20240287048A1, “SUBSTITUTED ACYL SULFONAMIDES FOR TREATING CANCER” (The Broad Institute, Inc., priority 2020, published 2024):

Key:
KAT6A = molecular target: T1, KAT6A (Homo sapiens, UniProt Q92794); experiment: Kat6a activity assay (TR-FRET, acetylation of biotinylated histone H4 peptide); assay type: biochemical; details: recombinant human His-tagged Kat6a (amino acids 194-810), 60 mins at 22° C., read-out: KAT6A-DPF/HAT domain IC50 [mol/l] (arithmetic mean)
T1 construct: Recombinant human His-tagged Kat6a protein (amino acids 194-810); His; made in house; host or cells: Baculovirus-infected Sf9 insect cells
T1 sequence (Q92794 194-810): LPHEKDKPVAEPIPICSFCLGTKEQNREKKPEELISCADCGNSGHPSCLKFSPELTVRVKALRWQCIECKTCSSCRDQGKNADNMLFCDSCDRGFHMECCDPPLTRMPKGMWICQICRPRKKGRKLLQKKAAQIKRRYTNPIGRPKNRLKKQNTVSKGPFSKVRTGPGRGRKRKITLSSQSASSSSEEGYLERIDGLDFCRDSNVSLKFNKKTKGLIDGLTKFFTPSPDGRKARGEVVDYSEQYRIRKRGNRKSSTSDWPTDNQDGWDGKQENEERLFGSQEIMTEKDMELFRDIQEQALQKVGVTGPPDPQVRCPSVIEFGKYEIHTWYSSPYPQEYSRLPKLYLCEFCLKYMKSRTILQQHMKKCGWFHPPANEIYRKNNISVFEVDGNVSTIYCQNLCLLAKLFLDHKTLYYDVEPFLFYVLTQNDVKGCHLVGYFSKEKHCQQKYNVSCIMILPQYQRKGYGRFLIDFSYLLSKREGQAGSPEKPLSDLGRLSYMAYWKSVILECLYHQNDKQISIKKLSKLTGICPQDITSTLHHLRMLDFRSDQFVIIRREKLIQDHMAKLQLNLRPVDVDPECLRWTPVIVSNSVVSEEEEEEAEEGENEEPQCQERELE
Excerpt: Kat6a inhibitory activities of the compounds described in the present invention were quantified using a Fluorescence Resonance Energy Transfer (TR-FRET) assay which measures acetylation of a synthetic, biotinylated Histone-H4-derived peptide by the enzyme.
Recombinant human His-tagged Kat6a protein (amino acids 194-810), was purified in-house from Baculovirus-infected insect cells (Sf9). Histone H4 peptide (amino acids 1-24, […]-VLRD-K(Btn)-amide), which was used as substrate, was synthesized by Biosyntan GmbH, Berlin, Germany. Acetyl Coenzyme A was purchased from Sigma-Aldrich (#A-2056).
Kat6a was incubated for 60 mins at 22° C. in the presence of different concentrations of test substances (0 μM, and within the range 0.01-20 μM) in assay buffer [25 mM Tris/HCl pH 8, 1 mM EGTA, 2.5 mM Glutathion, 0.02% Chicken Albumin, 0.05% Pluronic F127, 25 mM NaCl, 220 nM H4 peptide and 600 nM Acetyl Coenzyme A].
The reaction was stopped by addition of Detection Solution (25 mM HEPES pH 7.5, 0.1% BSA, 22 nM SAXL665 (Cisbio #610SAXLE), 100 μM Anacardic Acid (Enzo #ALX-270-381), 1 nM Anti-Histone H4 (ACETYL K8) Antibody (ABCAM #AB15823) and 0.5 nM Anti-Rabbit IgG Eu (Perkin Elmer #AD0083).
The fluorescence emission at 620 nm and 665 nm after excitation at 330-350 nm was measured in a TR-FRET measuring instrument, for instance a Rubystar or a Pherastar (both from BMG Lab Technologies, Offenburg, Germany) or a Viewlux (Perkin-Elmer). The ratio of the emission at 665 nm and at […] was used as indicator of the amount of acetylated peptide.
The resulting data (ratio) were normalized, taking 0% inhibition as the mean value of control measurements where all reagents were included. In this case 50 nl DMSO were used instead of compounds. […] IC50 values were determined by regression analysis based on a 4 parameter equation (minimum, maximum, ICM, Hill; Y=Max+(Min−Max)/(1+(X/ICso) Hill) using the Screener Software (Genedata).

[1] = test system: ESR1 transcription in MVLN cells; experiment: Repression of ESR1 transcription, MVLN luciferase reporter assay; assay type: cell-based; details: Homo sapiens, luciferase signal after 24 h, read-out: MVLN reporter assay, IC50[M] (arithmetic mean)
Excerpt: KAT6A controls transcription of the ESR1 gene in breast cancer cells. Compound treatment that interferes with this mechanism was quantified using MVLN cells. These cells constitutively express the ER and are stably transfected with the luciferase (LUC) reporter gene and the corresponding hormone responsive element derived from the 5′-flanking region of the Xenopus Vitellogenin A2 gene (Pons et al., 1990, Demirpense et al., 1993, Joyeux et al., 1993). The repressive effect on ERα transcription activity of a test chemical is directly related to the luciferase measured in the lysate of treated MVLN cells.
Each sample was prepared as duplicate and rim wells were excluded. For luciferase signal determination 100 μl of a 1:1 mixture of Steadylite plus (Perkin Elmer; 6016759) and assay medium was added after 24 h for 15 minutes and measured in Victor X3 (Perkin Elmer). To exclude any effects caused by cell loss during the treatment, cell density was determined using Alamar Blue (Invitrogen; DAL1100). Prior to the luciferase measurement 10 μl Alamar Blue were added to each well and the plates were incubated for 2 h in the incubator. Then fluorescence was measured with Victor X3 (Perkin Elmer) at 530 nm/590 nm.

ZR-75-1 cells = experiment: Proliferation assay in ZR-75-1 cells; assay type: cell-based; details: Homo sapiens, 144 h, Alamar Blue, read-out: ZR75-1 proliferation assay, EC50[M] (arithmetic mean)
Excerpt: (§1) For compound characterization cell survival assays were routinely run in two cell lines. ZR-75-1 is a breast carcinoma cell line containing a focal KAT6A amplification and high KAT6A protein expression. Proliferation of this cell line is inhibited upon treatment with KAT6A inhibitors. As a negative control cell line MDA-MB-436 were used. These cells carry a […] deletion of the KAT6A gene, have a low KAT6A protein expression and are not growth inhibited upon treatment with KAT6A inhibitors.
(§2) For measurements cell lines were plated at the below indicated concentration per […] in 96-well plates in a humidified incubator at 37° C. and 5% CO2.
(§3) ZR-75-1 (ATCC, CRL-1500; breast carcinoma); 3000 cells per well; culture medium: RPMI 1640 (Biochrom #FG 1215) medium containing 2.5% FBS (Biochrom #S0615). LCLC-97TM1 (DSMZ, ACC 388; large cell lung carcinoma); 6000 cells per well; culture medium: RPMI 1640 (Biochrom #FG 1215) medium containing 2.5% FBS (Biochrom #S0615). MDA-MB-436 (CLS, 300278; breast adenocarcinoma); 3000 cells per well; culture medium: DMEM/Ham's F12 (Biochrom #FG 4815) medium containing 2.5% FBS (Biochrom #S0615).
(§4) Each sample was prepared as triplicate and rim wells were excluded. Plates were incubated at 37° C. and 5% CO2 for 144 h. Cell viability was measured by adding 10 μL of Alamar Blue Reagent (Invitrogen #DAL 1100) and plates were incubated for 2 h at 37° C. and 5% CO2. Fluorescence was measured at 590 nm wavelength with a Tecan Spark or Victor X3 MTP-Reader (PerkinElmer).

LCLC-97TM1 cells = experiment: Proliferation assay in LCLC-97TM1 cells; assay type: cell-based; details: Homo sapiens, 144 h, Alamar Blue, read-out: LCLC97TM1 proliferation assay, EC50[M] (arithmetic mean)
Method: as §2, §3, §4

MDA-MB-436 cells = experiment: Proliferation assay in MDA-MB-436 cells (negative control cell line); assay type: cell-based; details: Homo sapiens, 144 h, Alamar Blue, read-out: MDA-MB-436 proliferation assay, EC50[M] (arithmetic mean)
Excerpt: as §1, §2, §3, §4

SMILES | IC50 (KAT6A) [µM] | IC50 [1] [M] | EC50 (MDA-MB-436 cells) [M] | EC50 (ZR-75-1 cells) [M] | EC50 (LCLC-97TM1 cells) [M]
COc1ccc(C(C)(C)C)cc1S(=O)(=O)NC(=O)c1cc2c(F)cc(C3CC3)cc2o1 [Example 66, N-((5-(tert-butyl)-2-methoxyphenyl)sulfonyl)-6-cyclopropyl-4-fluorobenzofuran-2-carboxamide] | 0.00331 | 4.96e-08 | > 2e-05 | 1.76e-07 | 2.64e-07
O=C(NS(=O)(=O)c1ccc(Cl)cc1Cl)c1cc2c(F)cc(C3CC3)cc2o1 [Example 37, 6-Cyclopropyl-N-(2,4-dichlorophenyl)sulfonyl-4-fluoro-benzofuran-2-carboxamide] | 0.078 | 1.06e-05 | > 2e-05 | 6.28e-06 | > 2e-05
O=C(NS(=O)(=O)c1ccccc1-c1ccccc1)c1cc2c(C(F)(F)F)cc(C3CC3)cc2o1 [Example 53, 6-Cyclopropyl-N-(2-phenylphenyl)sulfonyl-4-(trifluoromethyl)benzofuran-2-carboxamide] | 0.043 | 6.16e-06 | – | > 2e-05 | –
O=C(NS(=O)(=O)c1ccccc1)c1cc2c(F)cc(C3CC3)cc2o1 [Example 39, N-(Benzenesulfonyl)-6-cyclopropyl-4-fluoro-benzofuran-2-carboxamide] | 0.0707 | 4.57e-06 | > 2e-05 | 3.21e-06 | > 2e-05
CC(C)c1ccc2cc(C(=O)NS(=O)(=O)c3ccc(Cl)cc3Cl)oc2c1 [Example 57, N-(2,4-Dichlorobenzenesulfonyl)-6-(propan-2-yl)-1-benzofuran-2-carboxamide] | – | 1.21e-05 | > 2e-05 | > 2e-05 | –
Cc1ccc2cccc(S(=O)(=O)NC(=O)c3cc4c(N(C)C)cc(C5CC5)cc4o3)c2n1 [Example 43, 6-Cyclopropyl-4-(dimethylamino)-N-[(2-methyl-8-quinolyl)sulfonyl]benzofuran-2-carboxamide] | 0.013 | 6.92e-06 | > 2e-05 | 5.64e-06 | > 2e-05
CN(C)c1cc(C2CC2)cc2oc(C(=O)NS(=O)(=O)c3ccccc3-c3ccccc3)cc12 [Example 44, 6-Cyclopropyl-4-(dimethylamino)-N-(2-phenylphenyl)sulfonyl-benzofuran-2-carboxamide] | 0.052 | 1.16e-05 | > 2e-05 | 8.67e-06 | > 2e-05
N#Cc1ccc2cc(C(=O)NS(=O)(=O)c3ccccc3-c3ccccc3)oc2c1 [Example 3, N-([1,1′-biphenyl]-2-sulfonyl)-6-cyano-1-benzofuran-2-carboxamide] | > 20 | – | > 2e-05 | > 2e-05 | –
Cc1ccc2c(C)c(C(=O)NS(=O)(=O)c3ccccc3-c3ccccc3)oc2c1 [Example 14, N-([1,1′-biphenyl]-2-sulfonyl)-3,6-dimethyl-1-benzofuran-2-carboxamide] | 0.459 | 4.11e-06 | > 2e-05 | 8.7e-06 | 9.97e-06
CCOc1ccccc1S(=O)(=O)NC(=O)c1cc2c(C(F)(F)F)cc(C3CC3)cc2o1 [Example 51, 6-Cyclopropyl-N-(2-ethoxyphenyl)sulfonyl-4-(trifluoromethyl)benzofuran-2-carboxamide] | 0.0256 | 2.98e-06 | – | 9.14e-06 | –
O=C(NS(=O)(=O)c1ccccc1)c1cc2c(C(F)(F)F)cc(C3CC3)cc2o1 [Example 52, N-(Benzenesulfonyl)-6-cyclopropyl-4-(trifluoromethyl)benzofuran-2-carboxamide] | 0.138 | 1.88e-05 | – | 7.32e-06 | –

Further lines, with some results ahead:

IC50 (KAT6A) [µM] | IC50 [1] [M] | EC50 (MDA-MB-436 cells) [M] | SMILES | EC50 (ZR-75-1 cells) [M] | EC50 (LCLC-97TM1 cells) [M]
0.908 | 6.75e-06 | > 2e-05 | O=C(NS(=O)(=O)c1ccccc1-c1ccccc1)c1cc2ccc(C3CC3)c(F)c2o1 [Example 15, N-([1,1′-biphenyl]-2-sulfonyl)-6-cyclopropyl-7-fluoro-1-benzofuran-2-carboxamide] | 8.42e-06 | > 2e-05
5.75 | > 2e-05 | > 2e-05 | O=C(O)c1ccc2cc(C(=O)NS(=O)(=O)c3ccccc3-c3ccccc3)oc2c1 [Example 5, 2-[([1,1′-biphenyl]-2-sulfonyl)carbamoyl]-1-benzofuran-6-carboxylic acid] | > 2e-05 | –
17.3 | > 2e-05 | > 2e-05 | CN(C)C(=O)c1ccc2cc(C(=O)NS(=O)(=O)c3ccccc3-c3ccccc3)oc2c1 [Example 8, N^2-([1,1′-biphenyl]-2-sulfonyl)-N^6,N^6-dimethyl-1-benzofuran-2,6-dicarboxamide] | > 2e-05 | –
0.00555 | 1.95e-06 | > 2e-05 | Cc1ccc2cccc(S(=O)(=O)NC(=O)c3cc4c(C(F)(F)F)cc(C5CC5)cc4o3)c2n1 [Example 50, 6-Cyclopropyl-N-[(2-methyl-8-quinolyl)sulfonyl]-4-(trifluoromethyl)benzofuran-2-carboximide] | 1.38e-05 | > 2e-05
– | – | > 2e-05 | C=C(C)c1ccc2cc(C(=O)NS(=O)(=O)c3ccccc3-c3ccccc3)oc2c1 [Example 23, N-([1,1′-biphenyl]-2-sulfonyl)-6-(prop-1-en-2-yl)-1-benzofuran-2-carboxamide] | 1.15e-06 | –
0.00184 | 7.41e-08 | > 2e-05 | CCOc1ccc(C(C)CC)cc1S(=O)(=O)NC(=O)c1cc2c(F)cc(C3CC3)cc2o1 (stereo not shown) [Example 29, 6-Cyclopropyl-N-(2-ethoxy-5-sec-butyl-phenyl)sulfonyl-4-fluoro-benzofuran-2-carboxamide] | 8.86e-08 | 2.77e-07
> 20 | – | > 2e-05 | O=C(NS(=O)(=O)c1ccccc1-c1ccccc1)c1cc2ccc(-c3ccncc3)cc2o1 [Example 20, N-([1,1′-Biphenyl]-2-sulfonyl)-6-(pyridin-4-yl)-1-benzofuran-2-carboxamide] | 3.49e-06 | –
